“Also recorded” adds a separate entry of the source. Values belong to the compound of their own block, whether it stands above or below them.
Assays:
caspase 3 [1] = assay: Caspase 3 assay in drug-treated cells; assay type: cell-based, human; details: 0.75 μM DIME or 2 nM vincristine alone, 3 days
Protocol: g. Caspase 3 assay. MDA 231 cells were grown for 3 days in the absence of drugs (control) or in the presence of 0.75 μM DIME, or in the presence of 2 nM vincristine, or in the presence of both drugs. After harvesting and washing the cells with PBS, they were lysed in a lysis buffer (10 mM HEPES, 5 mM DTT, 2 mM EDTA, 1 mM PMSF, 0.1% CHAPS, 20 μg/ml each of aprotinin, leupeptin, pepstatin, pH 7.4), and were frozen and thawed 3 times. […] Each cell extract was incubated at room temperature with and without preincubation with the caspase inactivator DEVD-CMK. The difference of fluorescence was plotted against time. The fluorescence was calibrated with the fluorophore AFC.

[2] = tested on: metaphase arrest in cancer cells; assay: Metaphase block (mitotic block); assay type: cell-based; details: FIG. 7
Description: Metaphase was quantitated as reported by Mendeleyev et al., International Journal of Oncology 10:689-695 (1997).
Since vincristine and vinblastine were equivalent here we illustrate only DIME-vinblastine interaction on mitotic block.

[3] = tested on: MDA-MB-231 human mammary cancer cells; assay: Cell growth kinetics, median effect and isobologram; assay type: cell-based; details: 0.75 μM DIME (or DIPE) or 1-2 nM vincristine alone
Protocol: (§1) c. MDA-MB-231 human mammary cancer cells were cultured and treated as reported previously by Mendeleyev et al., International Journal of Oncology 10:689-695 (1997) and Zhen et al., International Journal of Oncology 10:689-695 (1997). For the assay of cell growth kinetics cells, were seeded into 2cm^2 wells (24-well plates) at a density of 8×10^3 /cm^2 at the time of seeding. Vincristine (or vinblastine) and DIME (or DIPE) were added from DMSO dilutions (1-2 μl/ 500 μl culture mediim) either from separate drug solutions or for the construction of median effect plot (FIG. 1) from a pre-made mixture of both drugs (e.g. 0.75 μM DIME+2 nM vincristine) and simultaneous dilutions thereof (Chou et al. Eur. J. Biochem. 115: 207-216 (1981)). The cultures were incubated at 37° C. for 4 days and growth rates, leading to near confluency in drug-free controls, were monitored by cell counting in a haemocytometer after detachment by trypsin treatment Mendeleyev et al., International Journal of Oncology 10:689-695 (1997) and Zhen et al., International Journal of Oncology 10:689-695 (1997). Mathematical analysis of growth curves and median effects and isobolograms were carried out by published procedures (Chou et al. J. Theor. Biol. 65: 345-356 (1977), Chou et al. Eur. J. Biochem. 115: 207-216 (1981) and Chou et al. Adv. in Enzyme Regulation 22:27-55 (1984)) and error bars indicate SD=Σx^2 +L -(Σx)^2 /n where X is the numerical results with n=3-5.
Kinetics of vincristine-DIME interactions: Interpretation of conventional isobolograms, consisting of plots of I50 values of two drugs alone and in combination is valid only if it is proven kinetically that both drugs bind at mutually exclusive sites.
Isobologram analysis of the combined action of DIME and vincristine is illustrated in FIG. 2, and it is evident that the action of the two drugs in combination exceed an additive effect, which is depicted by a concave curve, contrasting with additive action, which would display a straight line connecting the I50 values for each drug alone (dotted line in FIG. 2). […]

caspase 3 [4] = assay: Caspase 3 in cell-free extracts treated with drugs; assay type: biochemical; details: results not shown
leukemias = details: in vivo; cited from earlier work
malignant tumor growth = assay: Activity of DIME in vivo (general statement)
human cancer cells [5] = assay: Cytostatic / cytocidal activity of DIME analogues on human cancer cells; assay type: cell-based
Description: Such tests may also screen for the ability of a particular compound to inhibit malignant tumor cell growth in vitro or in vivo or abolish tumorigenicity of malignant cells.
As will be appreciated by the skilled artisan, many varieties of malignant tumor cell cultures and cell lines may be used to screen for activity, including but not limited to HL-60, HT-144, E-ras-20, DU-145, MDA-168, MCF-7, 855-2 and MDA-MB-231. Of course, other in vitro and/or in vivo assays as will be apparent to the skilled artisan to screen for anti-tumor and/or anti-cancer activity may also be employed to identify effective diiodo thyronine analogues useful in the present invention.

human cancer cells [6] = details: studies set forth in U.S. Ser. Nos. 08/655,267 and 08/833,272; cited from earlier work
thyroid = details: rat, in vivo; cited from earlier work
[7] = tested on: non-malignant mouse pituitary adenoma; details: in vivo; cited from earlier work
tadpole metamorphosis = details: in vivo; cited from earlier work
[8] = tested on: MDA-MB-231 human mammary cancer cells; assay: Colony formation (cell killing); assay type: cell-based; details: FIG. 4a
Protocol: as §1
e. Colony formation was quantitated as reported by. Each colony of 50 cells is the outgrowth from one cell, plated 10 days before colony counting.

tubulin α+β = assay: Inhibition of tubulin polymerization / assembly of microtubules; assay type: biochemical; details: FIG. 4b
Protocol: The optical tests were performed as reported by Buki et al., International Journal of Oncology 10:911-913 (1997).

microtubules = assay: Microtubule binding
[9] = tested on: esterase activity in certain tumor cells; assay: Stability to hydrolysis (esterase); details: versus DIME
[10] = vindesine versus vincristine; cited from earlier work
[11] = tested on: Ras and apoptosis-regulating kineses (ASK1), pathways; details: Wang et al.; cited from earlier work

Structure (SMILES): CC[C@]1(O)C[C@H]2CN(CCc3c([nH]c4ccccc34)[C@@](C(=O)OC)(c3cc4c(cc3OC)N(C=O)[C@H]3[C@@](O)(C(=O)OC)[C@H](OC(C)=O)[C@]5(CC)C=CCN6CC[C@]43[C@@H]65)C2)C1 [vincristine, reference compound]
Activation of caspase 3, single drug (caspase 3 [1]): small rate of caspase 3 activity
Combined action with DIME on metaphase arrest, vincristine versus vinblastine [2]: equivalent
Growth rate with single drug [3]: do not elicit effects that exceed the SD of average cell growth rates; also recorded: fall within SD values
Caspase 3 increase in cell-free extracts (caspase 3 [4]): do not show an increase in caspase 3
Activity in leukemias (leukemias): most active and useful agent in the treatment of leukemias

Structure (SMILES): CCOC(=O)c1cc(I)c(Oc2ccc(OC)cc2)c(I)c1 [Compound 5, Ethyl 3,5-diiodo-4-(4'-methoxyphenoxy)benzoate]
Activity in vivo (malignant tumor growth): completely inactive
Cytostatic and cytocidal activity in cellular assays (human cancer cells [5]): completely inactive

Structure (SMILES): COC(=O)c1cc(I)c(Oc2ccc(OC)cc2Cl)c(I)c1 [Compound 14, Methyl 3,5-diiodo-4-(2'-chloro-4'-methoxyphenoxy)benzoate]
maximal inhibitory action on the growth of human cancer cells as compared to DIME (human cancer cells [6]): about 25%

Structure (SMILES): NC(Cc1cc(I)c(Oc2cc(I)c(O)c(I)c2)c(I)c1)C(=O)O (stereo not shown) [thyroxine, reference compound]
Uptake of iodine by the thyroid (thyroid): suppresses uptake of iodine by the thyroid
Growth of non-malignant mouse pituitary tumor [7]: depress growth
Metabolic or cell differentiating activity (tadpole metamorphosis) (tadpole metamorphosis): induces cell differentiation

Structure (SMILES): CC[C@]1(O)C[C@@H]2CN(CCc3c([nH]c4ccccc34)[C@@](C(=O)OC)(c3cc4c(cc3OC)N(C)[C@H]3[C@@](O)(C(=O)OC)[C@H](OC(C)=O)[C@]5(CC)C=CCN6CC[C@]43[C@@H]65)C2)C1 [vinblastine]
Combined action with DIME on metaphase arrest, vincristine versus vinblastine [2]: equivalent

Structure (SMILES): CCCOc1ccc(Oc2c(I)cc(C(=O)OC)cc2I)cc1 [Compound 3]
Activity in vivo (malignant tumor growth): completely inactive
Cytostatic and cytocidal activity in cellular assays (human cancer cells [5]): completely inactive

Binding to microtubules (microtubules): bind to microtubules
Stability to hydrolysis [9]: non-hydrolyzable
Structure (SMILES): COc1ccc(Oc2c(I)cc(C(C)=O)cc2I)cc1 [DIPE, 1-[3,5-diiodo-4-(4'-methoxyphenoxy)-phenyl]-ethanone]
Inhibition of colony formation, DIME versus DIPE [8]: equivalency; also recorded: Equivalent effectivity
Inhibition of assembly of microtubules, DIME versus DIPE (tubulin α+β): equivalency; also recorded: Inhibitory effects
Growth rate with single drug [3]: do not elicit effects that exceed the SD of average cell growth rates

Structure (SMILES): CC[C@]1(O)C[C@@H]2CN(CCc3c([nH]c4ccccc34)[C@@](C(=O)OC)(c3cc4c(cc3OC)N(C)[C@H]3[C@@](O)(C(N)=O)[C@H](O)[C@]5(CC)C=CCN6CC[C@]43[C@@H]65)C2)C1 [vindesine, 4-desacetyl vinblastine C-3 carboxamide]
Neurotoxicity in humans [10]: less neurotoxicity than does vincristine
Activity in leukemias (leukemias): active in certain leukemias

Structure (SMILES): CC(=O)O[C@H]1C(=O)[C@@]2(C)[C@H]([C@H](OC(=O)c3ccccc3)[C@]3(O)C[C@H](OC(=O)[C@H](O)[C@@H](NC(=O)c4ccccc4)c4ccccc4)C(C)=C1C3(C)C)[C@]1(OC(C)=O)CO[C@@H]1C[C@@H]2O [taxol]
Activation of Ras and ASK1 pathways [11]: can activate both Ras and apoptosis-regulating kineses (ASK1), pathways
